Measurements: publication PMC9687610, “Adenosine-Mimicking Derivatives of 3-Aminopyrazine-2-Carboxamide: Towards Inhibitors of Prolyl-tRNA Synthetase with Antimycobacterial Activity” (Biomolecules, 2022)
≈ marks a conversion by molar mass, not a printed value. Like-named read-outs stand apart in the source and are kept apart here.

How the values were obtained:
[1] = system: Candida tropicalis CCM 8264 (ATCC 750); experiment: Antifungal microdilution broth (EUCAST), CT; type: cell-based; conditions: Candida tropicalis; read after 24 h; read-out: CT MIC
[2] = system: Candida krusei CCM 8271 (ATCC 6258); experiment: Antifungal microdilution broth (EUCAST), CK; type: cell-based; conditions: Pichia kudriavzevii; read after 24 h; read-out: CK MIC
[3] = system: M. aurum DSM 43999 (ATCC 23366); experiment: Microplate Alamar Blue Assay (MABA), M. aurum; type: cell-based; conditions: Mycolicibacterium aurum, read-out: M. aurum MIC
[4] = system: Aspergillus fumigatus ATCC 204305; experiment: Antifungal microdilution broth (EUCAST), AF; type: cell-based; conditions: Aspergillus fumigatus, ATCC204305; read after 24 h; read-out: AF MIC
[5] = system: Mycobacterium smegmatis DSM 43465 (ATCC 607); experiment: Microplate Alamar Blue Assay (MABA), M. smegmatis; type: cell-based; conditions: Mycolicibacterium smegmatis, read-out: M. smegmatis MIC
[6] = system: Candida albicans CCM 8320 (ATCC 24433); experiment: Antifungal microdilution broth (EUCAST), CA; type: cell-based; conditions: Candida albicans; read after 24 h; read-out: CA MIC
[7] = system: Staphylococcus epidermidis CCM 4418 (ATCC 12228); experiment: Antibacterial microdilution broth (EUCAST), SE; type: cell-based; conditions: read after 24 h, read-out: SE MIC
[8] = system: Lichtheimia corymbifera CCM 8077; experiment: Antifungal microdilution broth (EUCAST), LC; type: cell-based; conditions: Lichtheimia corymbifera, CCM8077; read after 24 h; read-out: LC MIC
[9] = system: Enterococcus faecalis CCM 4224 (ATCC 29212); experiment: Antibacterial microdilution broth (EUCAST), EF; type: cell-based; conditions: Enterococcus faecalis; read after 24 h; read-out: EF MIC
[10] = system: Klebsiella pneumoniae CCM 4415 (ATCC 10031); experiment: Antibacterial microdilution broth (EUCAST), KP; conditions: read after 24 h
[11] = system: Candida parapsilosis CCM 8260 (ATCC 22019); experiment: Antifungal microdilution broth (EUCAST), CP; type: cell-based; conditions: Lodderomyces parapsilosis; read after 24 h; read-out: CP MIC
[12] = system: Acinetobacter baumannii DSM 30007 (ATCC 19606); experiment: Antibacterial microdilution broth (EUCAST), ACI; type: cell-based; conditions: Acinetobacter baumannii; read after 24 h; read-out: ACI MIC
[13] = system: Staphylococcus aureus subsp. aureus CCM 4223 (ATCC 29213); experiment: Antibacterial microdilution broth (EUCAST), SA; type: cell-based; conditions: Staphylococcus aureus; read after 24 h; read-out: SA MIC
[14] = system: Staphylococcus aureus subsp. aureus methicillin-resistant (MRSA) CCM 4750 (ATCC 43300); experiment: Antibacterial microdilution broth (EUCAST), MRSA; type: cell-based; conditions: Staphylococcus aureus; read after 24 h; read-out: MRSA MIC
[15] = system: Pseudomonas aeruginosa CCM 3955 (ATCC 27853); experiment: Antibacterial microdilution broth (EUCAST), PA; type: cell-based; conditions: Pseudomonas aeruginosa; read after 24 h; read-out: PA MIC
[16] = system: Trichophyton interdigitale CCM 8377 (ATCC 9533); experiment: Antifungal microdilution broth (EUCAST), TI; type: cell-based; conditions: Trichophyton interdigitale, 72 h, read-out: TI MIC
[17] = system: Mycobacterium tuberculosis H37Ra ITM-M006710 (ATCC 9431); experiment: Microplate Alamar Blue Assay (MABA), Mtb H37Ra; type: cell-based; conditions: for MIC: Mycobacterium tuberculosis, 120 h, pH 6.6, MABA, Middlebrook 7H9 broth pH 6.6, resazurin after 120 h, read-out: Mtb H37Ra MIC; for antimycobacterial activity (in words): activity refers to Mtb H37Ra from the primary screening if not otherwise stated
[18] = system: Escherichia coli CCM 3954 (ATCC 25922); experiment: Antibacterial microdilution broth (EUCAST), EC; type: cell-based; conditions: Escherichia coli; read after 24 h; read-out: EC MIC
[19] = system: Aspergillus flavus CCM 8363; experiment: Antifungal microdilution broth (EUCAST), AFla; type: cell-based; conditions: Aspergillus flavus, CCM8363; read after 24 h; read-out: AFla MIC
[20] = system: HepG2 human hepatocellular carcinoma cells; experiment: In vitro HepG2 cytotoxicity (CellTiter 96); conditions: Homo sapiens, HepG2, 24 h, read-out: HepG2 IC50, 24 h incubation; * limit = highest evaluated concentration (precipitation in medium); ** over the 1000 µM limit

Compound: CN(C)C(=O)c1nccnc1NC(=O)c1ccc(Cl)cc1 [Compound 37]
- MIC [1]: > 500 µM
- MIC [2]: > 500 µM
- MIC ([3]; MABA, resazurin after 72 h): ≥ 500 µg/mL
- MIC [4]: > 500 µM
- MIC ([5]; MABA, resazurin after 48 h): ≥ 500 µg/mL
- MIC [6]: > 500 µM
- MIC [7]: > 500 µM
- MIC [8]: > 500 µM
- MIC [9]: > 500 µM
- KP MIC [10]: > 500 µM
- melting point: 184.1 to 185.3 °C
- MIC [11]: > 500 µM
- MIC [12]: > 500 µM
- MIC [13]: > 500 µM
- MIC [14]: > 500 µM
- MIC [15]: > 500 µM
- MIC [16]: > 500 µM
- MIC [17]: ≥ 500 µg/mL
- antimycobacterial activity (in words) [17]: inactive
- MIC [18]: > 500 µM
- MIC [19]: > 500 µM
- IC50 [20]: > 1000 µM

Compound: NC(=O)c1nccnc1NC(=O)c1cc(Cl)cc(Cl)c1 [Compound 19]
- MIC [1]: > 500 µM
- MIC [2]: > 500 µM
- MIC ([3]; 72 h): ≥ 62.5 µg/mL
- MIC [4]: > 500 µM
- MIC ([5]; 48 h): ≥ 62.5 µg/mL
- MIC [6]: > 500 µM
- MIC [7]: > 500 µM
- MIC [8]: > 500 µM
- MIC [9]: > 500 µM
- KP MIC [10]: > 500 µM
- melting point: > 300 °C
- MIC [11]: > 500 µM
- MIC [12]: > 500 µM
- MIC [13]: > 500 µM
- MIC [14]: > 500 µM
- MIC [15]: > 500 µM
- MIC [16]: > 500 µM
- MIC [17]: ≥ 62.5 µg/mL
- MIC [18]: > 500 µM
- MIC [19]: > 500 µM
- IC50 [20]: > 250 µM

Compound: NC(=O)c1nccnc1NC(=O)Cc1ccc(F)cc1 [Compound 25]
- MIC [1]: > 250 µM
- MIC [2]: > 250 µM
- MIC ([3]; MABA, resazurin after 72 h): ≥ 250 µg/mL
- MIC [4]: > 250 µM
- MIC ([5]; MABA, resazurin after 48 h): ≥ 250 µg/mL
- MIC [6]: > 250 µM
- MIC [7]: > 250 µM
- MIC [8]: > 250 µM
- MIC [9]: > 250 µM
- KP MIC [10]: > 250 µM
- melting point: 225.3 to 227.3 °C
- MIC [11]: > 250 µM
- MIC [12]: > 250 µM
- MIC [13]: > 250 µM
- MIC [14]: > 250 µM
- MIC [15]: > 250 µM
- MIC [16]: > 250 µM
- MIC [17]: ≥ 250 µg/mL
- antimycobacterial activity (in words) [17]: inactive
- MIC [18]: > 250 µM
- MIC [19]: > 250 µM
- IC50 [20]: > 100 µM

Compound: Cc1cccc(C(=O)Nc2nccnc2C(N)=O)c1 [Compound 3]
- MIC [1]: > 500 µM
- MIC [2]: > 500 µM
- MIC ([3]; MABA, resazurin after 72 h): ≥ 250 µg/mL
- MIC [4]: > 500 µM
- MIC ([5]; MABA, resazurin after 48 h): ≥ 250 µg/mL
- MIC [6]: > 500 µM
- MIC [7]: > 500 µM
- MIC [8]: > 500 µM
- MIC [9]: > 500 µM
- KP MIC [10]: > 500 µM
- melting point: 226.9 to 228.8 °C
- MIC [11]: > 500 µM
- MIC [12]: > 500 µM
- MIC [13]: > 500 µM
- MIC [14]: > 500 µM
- MIC [15]: > 500 µM
- MIC [16]: > 500 µM
- MIC [17]: 62.5 µg/mL (≈ 244 µM)
- MIC [18]: > 500 µM
- MIC [19]: > 500 µM
- IC50 [20]: > 100 µM

Compound: NC(=O)c1nccnc1NC(=O)c1ccc([N+](=O)[O-])cc1 [Compound 21, 3-(4-nitrobenzamido)pyrazine-2-carboxamide]
- MIC [1]: > 125 µM
- MIC [2]: > 125 µM
- MIC ([3]; MABA, resazurin after 72 h): ≥ 500 µg/mL
- MIC [4]: > 125 µM
- MIC ([5]; MABA, resazurin after 48 h): 250 µg/mL (≈ 870 µM)
- MIC [6]: > 125 µM
- MIC [7]: > 125 µM
- MIC [8]: > 125 µM
- MIC [9]: > 125 µM
- KP MIC [10]: > 125 µM
- melting point: > 300 °C
- MIC [11]: > 125 µM
- MIC [12]: > 125 µM
- MIC [13]: > 125 µM
- MIC [14]: > 125 µM
- MIC [15]: > 125 µM
- MIC [16]: > 125 µM
- MIC [17]: 250 µg/mL (≈ 870 µM)
- MIC [18]: > 125 µM
- MIC [19]: > 125 µM
- IC50 [20]: > 100 µM

Compound: O=c1[nH]c(-c2ccc(Cl)cc2)nc2nccnc12 [Compound 42]
- MIC [1]: > 125 µM
- MIC [2]: > 125 µM
- MIC ([3]; MABA, resazurin after 72 h): ≥ 500 µg/mL
- MIC [4]: > 125 µM
- MIC ([5]; MABA, resazurin after 48 h): ≥ 500 µg/mL
- MIC [6]: > 125 µM
- MIC [7]: > 125 µM
- MIC [8]: > 125 µM
- MIC [9]: > 125 µM
- KP MIC [10]: > 125 µM
- melting point: 306.5 to 307.9 °C
- MIC [11]: > 125 µM
- MIC [12]: > 125 µM
- MIC [13]: > 125 µM
- MIC [14]: > 125 µM
- MIC [15]: > 125 µM
- MIC [16]: > 125 µM
- MIC [17]: ≥ 500 µg/mL
- MIC [18]: > 125 µM
- MIC [19]: > 125 µM
- IC50 [20]: > 250 µM

Compound: COc1ccccc1C(=O)Nc1nccnc1C(N)=O [Compound 7]
- MIC [1]: > 500 µM
- MIC [2]: > 500 µM
- MIC ([3]; MABA, resazurin after 72 h): ≥ 500 µg/mL
- MIC [4]: > 500 µM
- MIC ([5]; MABA, resazurin after 48 h): 62.5 µg/mL (≈ 230 µM)
- MIC [6]: > 500 µM
- MIC [7]: > 500 µM
- MIC [8]: > 500 µM
- MIC [9]: > 500 µM
- KP MIC [10]: > 500 µM
- melting point: 205.4 to 206.7 °C
- MIC [11]: > 500 µM
- MIC [12]: > 500 µM
- MIC [13]: > 500 µM
- MIC [14]: > 500 µM
- MIC [15]: > 500 µM
- MIC [16]: > 500 µM
- MIC [17]: 125 µg/mL (≈ 459 µM)
- MIC [18]: > 500 µM
- MIC [19]: > 500 µM
- IC50 [20]: > 500 µM

Compound: NC(=O)c1nccnc1NC(=O)CCc1ccccc1 [Compound 26]
- MIC [1]: > 500 µM
- MIC [2]: > 500 µM
- MIC ([3]; MABA, resazurin after 72 h): ≥ 500 µg/mL
- MIC [4]: > 500 µM
- MIC ([5]; MABA, resazurin after 48 h): ≥ 500 µg/mL
- MIC [6]: > 500 µM
- MIC [7]: > 500 µM
- MIC [8]: > 500 µM
- MIC [9]: > 500 µM
- KP MIC [10]: > 500 µM
- melting point: 160.3 to 161.5 °C
- MIC [11]: > 500 µM
- MIC [12]: > 500 µM
- MIC [13]: > 500 µM
- MIC [14]: > 500 µM
- MIC [15]: > 500 µM
- MIC [16]: > 500 µM
- MIC [17]: 125 µg/mL (≈ 462 µM)
- antimycobacterial activity (in words) [17]: inactive
- MIC [18]: > 500 µM
- MIC [19]: > 500 µM
- IC50 [20]: > 500 µM
